Assay results from US12297426B2, “DNA damage response signature guided rational design of CRISPR-based systems and therapies” (THE BROAD INSTITUTE, INC., priority 2019, dated 2025).

Test system: MCF7 cells
Test: Drug response assay (CellTiter-Glo)
Type: cell-based, human
Conditions: Cas9-expressing vs parental MCF7 cells; 0 μM-100 μM, 72 h
Procedure: To further test the functional implications of Cas9-induced p53 activation, compared the response of parental and Cas9-expressing MCF7 cells to the MDM2-inhibitor nutlin-3 was compared. […] Without being bound by theory, these findings conclude that Cas9-induced p53 activation can affect both genetic and chemical perturbation assays.
MCF7 cells were seeded at a density of 9,000 cells per well in a 96-well plate. The next day, media was washed and fresh media containing nutlin-3 (Sigma-Aldrich) was added to the corresponding wells in a concentration range of 0 μM-100 μM. After 72 h of incubation, levels of ATP were measured as a surrogate marker for cell viability using the CellTiter-Glo assay (Promega). Luminescence measurements were acquired in a SpectraMax reader (ATC) using an integration time of 500 ms.

Which drug sensitivity does the source give for `COc1ccc(C2=N[C@@H](c3ccc(Cl)cc3)[C@@H](c3ccc(Cl)cc3)N2C(=O)N2CCNC(=O)C2)c(OC(C)C)c1` [nutlin-3] here?
The drug sensitivity was “modest, but significant, increase”.
